Laboratory results as given in US20110052503A1, “BIODEGRADABLE CONTRAST AGENTS” (IOPHARMA TECHNOLOGIES AB, priority 2007, published 2011).

Experiment: Stability of iohexyl hexa-acetate in human plasma
Settings: iohexyl formed from 300 μM IHA in citrated plasma, 37° C., FIG. 1
Procedure: A stock solution of iohexyl hexa-acetate was prepared by adding 100 mg IHA to a 100 ml volumetric flask, followed by 1.0 ml DMSO and deionised water to 100 ml, giving a final concentration of 1.0 mg/ml. The plasma solution was prepared by adding 1.61 ml of the IHA stock solution to 3.39 ml of citrated bovine plasma, giving a final concentration of 300 μM. The citrated human plasma was incubated at 37° C., and 0.25 ml plasma removed at 1, 2, 3, 4, 6, 8, 24, 30 and 48 h. Proteins were discarded from the samples by centrifugal filtration and the resulting filtrates analyzed by HPLC.

CC(=O)N(CC(O)CO)c1c(I)c(C(=O)NCC(O)CO)c(I)c(C(=O)NCC(O)CO)c1I (centres unmarked) [iohexyl]
concentration of iohexyl in plasma, first 8 h (first 8 h): constant | concentration of iohexyl in plasma, 8 to 48 h (from 8 to 48 h): increases dramatically
